ChEMBL document CHEMBL3228014, “Preparation of the enantiomeric forms of 9-(5-deoxy-alpha-threo-pent-4-enofuranosyl)adenine and 9-(3,5-dideoxy-beta-D-glycero-pent-4-enofuranosyl)adenine and in vitro antileukemic screening” (1979)
Activity calls are given as the source filed them. The rule behind the calls is not given here.

Tested on: L1210
Assay: Antiproliferative activity against mouse L1210 cells assessed as growth inhibition at 50 uM
Assay type: functional

Compound	inhibition	inhibition at 50 µM [%]
C=C1O[C@H](n2cnc3c(N)ncnc32)[C@@H](O)[C@@H]1O	inactive	
C=C1O[C@@H](n2cnc3c(N)ncnc32)CC1O (single isomer, unassigned)	inactive	
C=C1C[C@@H](O)[C@H](n2cnc3c(N)ncnc32)O1		50
C=C1O[C@@H](n2cnc3c(N)ncnc32)[C@H](O)[C@H]1O	inactive	
C=C1O[C@H](n2cnc3c(N)ncnc32)[C@H](O)[C@H]1O	inactive	
